The text below walks through data of patent US4282247A, “5-(2-Hydroxy-3-thiopropoxy) chromone-2-carboxylic acids chemical process and pharmaceutical compositions” (CM Industries, priority 1979, dated 1981).

The structures appear in SMILES notation. Structures can show the parent of a compound that is named as a salt. Where two headings read alike, the source gives them in different places.

The test system of data set [1] is passive cutaneous anaphylaxis. Kind of data set: Inhibition of passive cutaneous anaphylaxis in rats (oral), % versus controls. It counts as in vivo. The conditions noted are these: rat, os. Here is the method:
The 5-(2-hydroxy-3-thiopropoxy)chromone-2-carboxylic acids, their salts and their esters have been tested in rats by oral route to evaluate their ability to inhibit passive cutaneous anaphylaxis in animals sensitized to egg albumin and Bordetella pertussis.
The percentages of inhibition, in comparison with the controls, of the allergic reaction induced by passive cutaneous anaphylaxis in rats treated with 0.1 ml of an homologous antiserum diluted 1/10 and injected by intradermal route, are summarized in table I.

The next data set can be described thus: LD50 mouse, os. Particulars: in vivo, po.
Data set [2] has as its system passive cutaneous anaphylaxis. In words: ED50 for inhibition of passive cutaneous anaphylaxis in rats sensitized to egg albumin and Bordetella pertussis, oral and intravenous. It counts as in vivo. The conditions noted are these: Table IV, rat. The text has this:
The ability of the 5-(2-hydroxy-3-thiopropoxy) chromone-2-carboxylic acids of the present invention and of the salts and esters thereof of inhibiting--by oral as well as by intravenous route--the passive cutaneous anaphylaxis in rats sensitized to egg albumin and Bordetella pertussis has been compared to that of two reference compounds: […]

Where [3] appears, read: po, Table I, °° significant P ≤ 0.01, read-out: Δ % in comparison with controls (inhibition of passive cutaneous anaphylaxis).
[4] abbreviates: po, Table I, °° P ≤ 0.01, ° P ≤ 0.05 (product B), read-out: Δ % in comparison with controls (inhibition of passive cutaneous anaphylaxis).
Where [5] appears, read: po, Table III, 10 mg/kg, °° P ≤ 0.01, * non significant (product D), read-out: Δ % in comparison with controls (inhibition of passive cutaneous anaphylaxis).
Setting [6] is: po, Table III, °° P ≤ 0.01, * non significant (product D), read-out: Δ % in comparison with controls (inhibition of passive cutaneous anaphylaxis).

As to `CCCCSCC(O)COc1cccc2oc(C(=O)OCC)cc(=O)c12` (stereo not shown) [CM 57193, Ethyl 5-(2-hydroxy-3-butylthiopropoxy)chromone-2-carboxylate], the change in vivo at 50 mg/kg in data set [1] (setting [3]) is -47.6%. The change in vivo at 100 mg/kg in data set [1] (setting [4]) is -70.8%. The LD50 (usually the dose expected to kill half of the subjects tested) in the data set “LD50 mouse, os” is more than 1000 mg/kg.
With `CCCCSCC(O)COc1cccc2oc(C(=O)O)cc(=O)c12.O` (stereo not shown) [CM 57194, 5-(2-hydroxy-3-butylthiopropoxy)chromone-2-carboxylic acid monohydrate], in data set [1] (setting [4]), the change in vivo at 100 mg/kg is -55.4%. In “LD50 mouse, os”, the LD50 was more than 1000 mg/kg.
On to `CCOC(=O)c1cc(=O)c2c(OCC(O)CSC)cccc2o1` (stereo not shown) [CM 57201, ethyl 5-(2-hydroxy-3-methylthiopropoxy)chromone-2-carboxylate], for which the “Δ % in comparison with controls (inhibition of passive cutaneous anaphylaxis)” value in data set [1] (Table II, 10 mg/kg, °° P ≤ 0.01, * non significant (product C)) is -65.55%. Further, in data set [1] (po, Table I, 10 mg/kg, °° significant P ≤ 0.01, read-out: Δ % in comparison with controls (inhibition of passive cutaneous anaphylaxis)), the change in vivo at 10 mg/kg was -65.5%. Further, in data set [1] (setting [4]), the change in vivo at 100 mg/kg is -75.1%. Also, the ED50 (usually the midpoint of the dose-response relation) in data set [2] (i.v., read-out: ED50) amounted to 0.11 mg/kg; in data set [2] (po, os, read-out: ED50), 5.39 mg/kg. Also, the LD50 in the data set “LD50 mouse, os” was more than 1000 mg/kg.
As for `CSCC(O)COc1cccc2oc(C(=O)O)cc(=O)c12` (stereo not shown) [CM 57202, 5-(2-hydroxy-3-methylthiopropoxy)chromone-2-carboxylic acid], the change in vivo at 10 mg/kg in data set [1] (setting [5]) was -53%. Further, in data set [1] (setting [6]), the change in vivo at 100 mg/kg was -70.4%. Further, the ED50 in data set [2] (i.v., read-out: ED50) is 0.13 mg/kg; in data set [2] (po, os, read-out: ED50) it was 38.1 mg/kg.
In the case of `CCOC(=O)c1cc(=O)c2c(OCC(O)CSC(C)C)cccc2o1` (stereo not shown) [CM 57215, Ethyl 5-(2-hydroxy-3-isopropylthiopropoxy)chromone-2-carboxylate], the change in vivo at 100 mg/kg in data set [1] (setting [4]) was -75%. This molecule also showed an LD50 in the data set “LD50 mouse, os” of more than 1000 mg/kg.
For the molecule `CCOC(=O)c1cc(=O)c2c(OCC(O)CSCC)cccc2o1` (stereo not shown) [CM 57249, Ethyl 5-(2-hydroxy-3-ethylthiopropoxy)chromone-2-carboxylate], the change in vivo at 50 mg/kg in data set [1] (setting [3]) was -73%. The change in vivo at 100 mg/kg in data set [1] (setting [4]) is -75.8%. This molecule returned an LD50 in “LD50 mouse, os” of more than 1000 mg/kg.
Turning to `CCCSCC(O)COc1cccc2oc(C(=O)OCC)cc(=O)c12` (stereo not shown) [CM 57251, Ethyl 5-(2-hydroxy-3-propylthiopropoxy)chromone-2-carboxylate], the change in vivo at 100 mg/kg in data set [1] (setting [4]) was -69.1%. This molecule showed an LD50 in “LD50 mouse, os” of more than 1000 mg/kg.
With `O=C(O)c1cc(=O)c2c(OCC(O)COc3cccc4oc(C(=O)O)cc(=O)c34)cccc2o1` [Product E, 1,3-bis-(2-carboxy-5-chromonyloxy)propane-2-ol sodium salt, reference compound], the ED50 in data set [2] (i.v., read-out: ED50) is 1.15 mg/kg; in data set [2] (os), “inactive”.
With `N#Cc1ccc(OCC(O)COc2cccc3oc(C(=O)O)cc(=O)c23)cc1` (stereo not shown) [Product F, 5-(2-hydroxy-3-p-cyanophenoxypropoxy)chromone-2-carboxylic acid, reference compound], the ED50 in data set [2] (i.v., read-out: ED50) is 0.29 mg/kg; in data set [2] (os), “inactive”.
`O=C(O)c1ccc2oc3ccc(OCCO)cc3c(=O)c2c1` [product A, 7-(2-hydroxyethoxy)-9-oxoxanthene-2-carboxylic acid, reference compound]: the change in vivo at 100 mg/kg in data set [1] (setting [4]) was -66.2%. In the data set “LD50 mouse, os”, this molecule came in with an LD50 of approximately 1000 mg/kg.
Turning to `CC(=O)c1ccc(O)c(C(=O)O)c1` [product B, 5-acetylsalicylic acid, reference compound], the change in vivo at 100 mg/kg in data set [1] (setting [4]) was -29.2%. The same molecule returned an LD50 in “LD50 mouse, os” of approximately 1000 mg/kg.
Take `CCOC(=O)c1cc(=O)c2c(OCC(O)COC)cccc2o1` (stereo not shown) [product C, ethyl 5-(2-hydroxy-3-methoxypropoxy)chromone-2-carboxylate, reference compound]: the change in vivo at 10 mg/kg in data set [1] (po, Table II, 10 mg/kg, °° P ≤ 0.01, * non significant (product C), read-out: Δ % in comparison with controls (inhibition of passive cutaneous anaphylaxis)) was 8.71%.
`CSCC(O)COc1ccc2c(=O)cc(C(=O)O)oc2c1` (stereo not shown) [product D, 7-(2-hydroxy-3-methylthiopropoxy)chromone-2-carboxylic acid, reference compound]: the change in vivo at 10 mg/kg in data set [1] (setting [5]) amounted to 17.8%. The change in vivo at 100 mg/kg in data set [1] (setting [6]) is -16.2%. The change in vivo at 200 mg/kg in data set [1] (po, Table III, 200 mg/kg, ° significant P ≤ 0.05, read-out: Δ % in comparison with controls (inhibition of passive cutaneous anaphylaxis)) was -30.1%.
